# Experimental data published in patent US8729078B2, “Inhibitors of bruton's tyrosine kinase” (Hoffmann-La Roche Inc., priority 2011, dated 2014).
# Legend:
# Btk = Btk (Homo sapiens (Human), UniProt Q06187); assay: Bruton's Tyrosine Kinase (Btk) inhibition assay (FRET BTK); format: biochemical
# Ramos cells = assay: Inhibition of B-cell activation, B cell FLIPR assay in Ramos cells (anti-IgM stimulated calcium increase); format: cell-based; details: Homo sapiens, anti-IgM stimulated Ca2+ signaling
# Text: Inhibition of B-Cell Activation—B Cell FLIPR Assay in Ramos Cells
# The B cell FLIPR assay is a cell based functional method of determining the effect of potential inhibitors of the intracellular calcium increase from stimulation by an anti-IgM antibody. Ramos cells (human Burkitt's lymphoma cell line. ATCC-No. CRL-1596) were cultivated in Growth Media (described below). One day prior to assay, Ramos cells were resuspended in fresh growth media (same as above) and set at a concentration of 0.5×10^6/mL in tissue culture flasks. On day of assay, cells are counted and set at a concentration of 1×10^6/mLl in growth media supplemented with 1 μM FLUO-3AM (TefLabs Cat-No. 0116, prepared in anhydrous DMSO and 10% Pluronic acid) in a tissue culture flask, and incubated at 37° C. (4% CO2) for one h. To remove extracellular dye, cells were collected by centrifugation (5 min, 1000 rpm), resuspended in FLIPR buffer (described below) at 1×10^6 cells/mL and then dispensed into 96-well poly-D-lysine coated black/clear plates (BD Cat-No. 356692) at 1×10^5 cells per well. Test compounds were added at various concentrations ranging from 100 μM to 0.03 μM (7 concentrations, details below), and allowed to incubate with cells for 30 min at RT. Ramos cell Ca^2+ signaling was stimulated by the addition of 10 μg/mL anti-IgM (Southern Biotech, Cat-No. 2020-01) and measured on a FLIPR (Molecular Devices, captures images of 96 well plates using a CCD camera with an argon laser at 480 nm excitation).
# Growth Medium: RPMI 1640 medium with L-glutamine (Invitrogen, Cat-No. 61870-010), 10% Fetal Bovine Serum (FBS, Summit Biotechnology Cat-No. FP-100-05); 1 mM Sodium Pyruvate (Invitrogen Cat. No. 11360-070).
# FLIPR buffer: HBSS (Invitrogen, Cat-No. 141175-079), 2 mM CaCl2 (Sigma Cat-No. C-4901), HEPES (Invitrogen, Cat-No. 15630-080), 2.5 mM Probenecid (Sigma, Cat-No. P-8761), 0.1% BSA (Sigma, Cat-No. A-7906), 11 mM Glucose (Sigma, Cat-No. G-7528)
# Compound Dilution Details:
# In order to achieve the highest final assay concentration of 100 μM, 24 μL of 10 mM compound stock solution (made in DMSO) is added directly to 576 μL of FLIPR buffer. The test compounds are diluted in FLIPR Buffer (using Biomek 2000 robotic pipettor) resulting in the following dilution scheme: vehicle, 1.00×10^−4 M, 1.00×10^−5, 3.16×10^−6, 1.00×10^−6, 3.16×10^−7, 1.00×10^−7, 3.16×10^−8.
# Intracellular increases in calcium were reported using a max-min statistic (subtracting the resting baseline from the peak caused by addition of the stimulatory antibody using a Molecular Devices FLIPR control and statistic exporting software. The IC50 was determined using a non-linear curve fit (GraphPad Prism software).
# [1] = tested on: B cells in human whole blood (CD69 expression); assay: Inhibition of B cell activation in whole blood measured by CD69 expression; format: cell-based; details: anti-IgM stimulation, CD69-positive CD20-positive cells
# Description: Inhibition of B Cell Activation in Whole Blood Measured by CD69 Expression
# A procedure to test the ability of Btk inhibitors to suppress B cell receptor-mediated activation of B cells in human blood is as follows:
# Human whole blood (HWB) is obtained from healthy volunteers, with the following restrictions: 24 hr drug-free, non-smokers. Blood is collected by venipuncture into Vacutainer tubes anticoagulated with sodium heparin. Test compounds are diluted to ten times the desired starting drug concentration in PBS (20×), followed by three-fold serial dilutions in 10% DMSO in PBS to produce a nine point dose-response curve. 5.5 μl of each compound dilution is added in duplicate to a 2 ml 96-well V bottom plate (Analytical Sales and Services, #59623-23); 5.5 μl of 10% DMSO in PBS is added to control and no-stimulus wells. HWB (100 μl) is added to each well, and after mixing the plates are incubated at 37 C, 5% CO2, 100% humidity for 30 minutes. Goat F(ab′)2 anti-human IgM (Southern Biotech, #2022-14) (10 μl of a 500 μg/ml solution, 50 μg/ml final concentration) is added to each well (except the no-stimulus wells) with mixing and the plates are incubated for an additional 20 hours.
# At the end of the 20 hour incubation, samples are incubated with florescent-probe-labeled anti-bodies (15 μl PE Mouse anti-Human CD20, BD Pharmingen, #555623, and/or 20 ul APC Mouse anti-Human CD69, BD Pharmingen #555533) for 30 minutes, at 37 C, 5% CO2, 100% humidity. Included are induced control, unstained and single stains for compensation adjustments and initial voltage settings. Samples are then lysed with 1 ml of 1× Pharmingen Lyse Buffer (BD Pharmingen #555899), and plates are centrifuged at 1800 rpm for 5 minutes. Supernatants are removed via suction and the remaining pellets are lysed again with another 1 ml of 1× Pharmingen Lyse Buffer, and plates are spun down as before. Supernatants are aspirated and remaining pellets are washed in FACs buffer (PBS+1% FBS). After a final spin, the supernantants are removed and pellets are resuspended in 180 μl of FACs buffer. Samples are transferred to a 96 well plate suitable to be run on the HTS 96 well system on the BD LSR II flow cytometer.
# Using appropriate excitation and emission wavelengths for the fluorophores used, data are acquired and percent positive cell values are obtained using Cell Quest Software. Results are initially analyzed by FACS analysis software (Flow Jo). […] The IC50 values are calculated using XLfit software version 3, equation 201.
# Chain of Btk (Q06187 whole entry): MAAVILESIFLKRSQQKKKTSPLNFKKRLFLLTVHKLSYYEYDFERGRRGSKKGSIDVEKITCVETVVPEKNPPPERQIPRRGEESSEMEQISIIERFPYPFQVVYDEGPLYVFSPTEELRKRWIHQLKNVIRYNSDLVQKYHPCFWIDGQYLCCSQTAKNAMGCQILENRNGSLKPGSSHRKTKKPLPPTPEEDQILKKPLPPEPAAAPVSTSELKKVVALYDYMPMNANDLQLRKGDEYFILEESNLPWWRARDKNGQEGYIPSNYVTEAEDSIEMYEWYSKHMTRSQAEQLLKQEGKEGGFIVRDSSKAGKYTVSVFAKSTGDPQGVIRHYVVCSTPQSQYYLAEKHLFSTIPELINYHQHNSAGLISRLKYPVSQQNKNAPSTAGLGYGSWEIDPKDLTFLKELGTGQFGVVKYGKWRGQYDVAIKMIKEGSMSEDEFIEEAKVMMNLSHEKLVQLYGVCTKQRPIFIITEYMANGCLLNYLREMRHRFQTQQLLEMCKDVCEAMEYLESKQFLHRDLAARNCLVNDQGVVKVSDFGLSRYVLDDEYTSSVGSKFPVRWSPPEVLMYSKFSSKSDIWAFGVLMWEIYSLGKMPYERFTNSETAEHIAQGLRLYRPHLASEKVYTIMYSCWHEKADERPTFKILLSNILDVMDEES
IC50 (Btk) [nM],IC50 (Ramos cells) [nM],IC50 [1] [nM],Compound
50,11200,–,"Cn1cc(-c2cccc(-n3ncc4cc(C(C)(C)C)ccc4c3=O)c2CO)nc1C(N)=O [Compound I-1, 4-[3-(6-tert-Butyl-1-oxo-1H-phthalazin-2-yl)-2-hydroxymethyl-phenyl]-1-methyl-1H-imidazole-2-carboxylic acid amide]"
281,1600,–,"CC(C)(C)c1ccc2c(=O)n(-c3cccc(-c4nc(C(N)=O)cs4)c3CO)ncc2c1 [Compound I-2, 2-[3-(6-tert-Butyl-1-oxo-1H-phthalazin-2-yl)-2-hydroxymethyl-phenyl]-thiazole-4-carboxylic acid amide]"
3.2,40,759,"CC(C)(C)c1cc(F)c2c(=O)n(-c3cccc(-n4cc(C(N)=O)c5cccnc54)c3CO)ncc2c1 [Compound I-15, 1-[3-(6-tert-Butyl-8-fluoro-1-oxo-1H-phthalazin-2-yl)-2-hydroxymethyl-phenyl]-1H-pyrrolo[2,3-b]pyridine-3-carboxylic acid amide]"
20,270,1430,"Cn1cc(-c2ccnc(-n3ncc4cc(C(C)(C)C)cc(F)c4c3=O)c2CO)cc1C(N)=O [Compound I-16, 4-[2-(6-tert-Butyl-8-fluoro-1-oxo-1H-phthalazin-2-yl)-3-hydroxymethyl-pyridin-4-yl]-1-methyl-1H-pyrrole-2-carboxylic acid amide]"
